# Data: patent US6380179B1, “Method for treatment of alopecia” (Sankyo Company, Limited, priority 1997, dated 2002)
# pIC50: −log10 of the molar value.
# Assays:
# [1] = target: T1, recombinant type I human 5α-reductase (Homo sapiens, UniProt P18405); assay: Inhibitory activity against recombinant type I human 5α-reductase (conversion of 14C testosterone to 14C 5α-dihydrotestosterone); type: biochemical; conditions: recombinant human type I 5α-reductase, pH 7.5, 1 μM 14C testosterone, 37° C. 15 minutes; Table 1
# T1 construct: In order to clone the entirely translated regions of type I and type II human 5α-reductases by a polymerase chain reaction (PCR) method; made in house; host or cells: COS-1 cells transiently transfected with pME18sH5R1; resuspended 10000×g pellet of the homogenate used as the enzyme
# T1 sequence (P18405 1-259): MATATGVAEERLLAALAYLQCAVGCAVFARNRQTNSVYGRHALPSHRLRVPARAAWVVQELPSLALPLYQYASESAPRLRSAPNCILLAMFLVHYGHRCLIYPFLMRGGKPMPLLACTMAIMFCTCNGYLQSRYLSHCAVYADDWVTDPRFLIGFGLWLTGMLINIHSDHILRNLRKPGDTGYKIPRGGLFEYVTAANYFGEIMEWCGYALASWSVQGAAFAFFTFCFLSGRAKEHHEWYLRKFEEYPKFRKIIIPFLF
# Protocol: Method for Determination of the Inhibitory Activity Against Each of Type I and Type II Human 5α-reductases
# (1) Preparation of recombinant human type I and type II 5α-reductases
# In order to clone the entirely translated regions of type I and type II human 5α-reductases by a polymerase chain reaction (PCR) method, primers of Sequence ID. Nos. 1,2,3 and 4 were prepared using an Oligo 1000 DNA synthesizer (product of BECKMAN Co., Ltd.) on the basis of the base sequences of type I and type II human 5α-reductases described in published reports (Stefan. A, et al., Proc. Natl. Acad. Sci. USA, 87, 3640-3644(1990). Stefan. A, et al. Nature, 354. 159-161(1991)).
# PCR was carried out using 1 μl of cDNA. 5 μl of a PCR buffer attached. 1 μl of a 10 mM dNTP mixed solution. 1 μl each of the above-described sense and antisense-primers at a concentration of 20 μl M. 1 μl of […] of TaKaRa Taq polymerase and 40 μl of distilled water to give a reaction volume of 50 μl. For PCR, a cycle of the reactions at 94° C. for 20 seconds, at 55° C. for 1 minute and at 72° C. for 1 minute was repeated 25 times, followed by storing at 4° C. […]
# The protein content was measured by the Bradford method (Bio-Rad Protein Assay of Biorad) by using bovine gamma-globulin (bovine cohn fraction II, product of Sigma) as a standard product. […]
# [2] = tested on: dihydrotestosterone (DHT) and testosterone (T) levels in blood; assay: Effects for lowering the dihydrotestosterone level in human blood after oral administration; type: in vivo; conditions: n=4 to 6
# Protocol: Effects for Lowering the Dihydrosterone Level in Human Blood
# To a human body, 1 to 10 mg/body of Compound I or 5 mg/body of Finasteride was orally administered and the dihydrotestosterone (DHT) and testosterone (T) levels in blood were measured. Their ratios (DHT/T) before administration (pre) and after passage of time (10 and 18 hours) were calculated, from which (DHT/T)/(DHT/T)pre was calculated.
# [3] = tested on: monkey model animal of male pattern baldness; conditions: cited from earlier work
# human baldness = conditions: clinical test; cited from earlier work
compound,measurement,setting,value
"COc1ccc(C(C)(C)NC(=O)[C@H]2CC[C@H]3[C@@H]4CC[C@H]5NC(=O)C=C[C@]5(C)[C@H]4CC[C@]23C)cc1 [Compound of Reference Example 1, N-[1-Methyl1-(4-methoxyphenyl)ethyl]-3-oxo4-aza-5α-androsto-1-ene-17β-carboxamide]",pIC50,[1],7.31
same,(DHT/T)/(DHT/T)pre,"[2]; 1 mg/body, after 10 hours",0.518
same,(DHT/T)/(DHT/T)pre,"[2]; 1 mg/body, after 18 hours",0.525
same,(DHT/T)/(DHT/T)pre,"[2]; 5 mg/body, after 10 hours",0.411
same,(DHT/T)/(DHT/T)pre,"[2]; 5 mg/body, after 18 hours",0.376
same,(DHT/T)/(DHT/T)pre,"[2]; 10 mg/body, after 10 hours",0.279
same,(DHT/T)/(DHT/T)pre,"[2]; 10 mg/body, after 18 hours",0.284
CC(C)CCCC(C)C1CCC2C3C(C)CC4N(C)C(=O)CCC4(C)C3CCC12C (stereo not shown) [MK386],effectiveness on baldness,[3],not recognized
"CC(C)(C)NC(=O)[C@H]1CC[C@H]2[C@@H]3CC[C@H]4NC(=O)C=C[C@]4(C)[C@H]3CC[C@]12C [Finasteride, reference compound]",effectiveness on baldness,[3],effective in the treatment of baldness
same,pIC50,[1],6.15
same,(DHT/T)/(DHT/T)pre,"[2]; 5 mg/body, after 10 hours",0.553
same,(DHT/T)/(DHT/T)pre,"[2]; 5 mg/body, after 18 hours",0.461
same,effects on human baldness,human baldness,have been recognized
